In patent US7888395B2, “STAT3 phosphorylation inhibitor and notch1 expression inhibitor” (Meiji Dairies Corporation, priority 2004, dated 2011):

What was measured:
Notch1 [1] = test: Notch1 expression in cell strain transformed with Ras; type: cell-based, mouse; conditions: fibroblast transformed with Ras, 10^−6M
Protocol: (§1) The fibroblast transformed with Ras was treated with 2,4,4-trimethyl-3-(15-hydroxypentadecyl)-2-cyclohexen-1-one (10^−6M) and then compared with the untreated cell. Non-transformed cell strains (treated and untreated) were used as controls.

[2] = system: 3T3 Ras transformed fibroblast; test: Ex vivo test, tumor size after injection of 3T3 Ras transformed fibroblast into Swiss Nu/Nu mouse; type: in vivo; conditions: cells pretreated 3 days, intraperitoneal on days 2, 8 and 15, FIG. 4
Protocol: In a test tube for 3 days, 3T3 Ras transformed fibroblast (derived from mouse) or 3T3 fibroblast (derived from mouse) was treated with applying 50 μl (10^−3 M) of 2,4,4-trimethyl-3-(15-hydroxypentadecyl)-2-cyclohexen-1-one. The cell ([…]) was again suspended in 400 μl of DMEM medium and 200 μl thereof was injected into 7 weeks-old Swiss Nu/Nu mouse (male) symmetrically. On second, eighth, and fifteenth days after injection, 2,4,4-trimethyl-3-(15-hydroxypentadecyl)-2-cyclohexen-1-one was intraperitoneally administrated into mouse.

STAT3 = test: Western Blot of STAT3 phosphorylation; type: cell-based; conditions: 10^−8 M solution, compared with control without compound, FIG. 2
Protocol: After preparation of 2,4,4-trimethyl-3-(15-hydroxypentadecyl)-2-cyclohexen-1-one solution (10^−8 M), Western Blot was performed using STAT3 and phosphorylated STAT3 antibody (STAT3 antibody derived from rabbit, manufactured by Cell Signaling) to confirm the action of 2,4,4-trimethyl-3-(15-hydroxypentadecyl)-2-cyclohexen-1-one on STAT3 phosphorylation.

HES5 = test: Gene expression test, RT-PCR analysis of HES5; type: cell-based, mouse, rat; conditions: treated relative to untreated cells, normalized toward GAPDH
Protocol: (§2) In ethanol, 2,4,4-trimethyl-3-(15-hydroxypentadecyl)-2-cyclohexen-1-one synthesized by the method described in JP-A-2000-297034 was dissolved to give a concentration of 10^−2 M. The solution was added to a culture solution in a desirable concentration to be final dilution of 1 μl/ml. At different times and different periods in cell culture, 2,4,4-trimethyl-3-(15-hydroxypentadecyl)-2-cyclohexen-1-one was added. […] Each experiment was repeated at least three times.
(§3) Protocol was adapted from Grandbarbe et al., Development (2003) 130, 1393-1402. When briefly explained, as described in Tropepe et al., Dev. Biol. (1999) 208, 166-188, primary neurospheres were prepared from telencephalon of wild-type embryo (E14.5) and were maintained as secondary neurospheres by continuous subculture in a serum-free medium (Reynolds and Weiss, Science (1992) 255, […]) containing 10 ng/ml EGF. After propagation for different times, 50 to 100 neurospheres were inoculated to a polyornithine (Sigma)-coated cover slip in the presence of 2 ng/ml EGF and 0.5% FBS and differentiated. […]
(§4) Typical cycle conditions were 94° C. for 30 seconds, 55° C. for 30 seconds, and 72° C. for 30 seconds except for HES-5 whose program was 94° C. for 30 seconds, 63° C. for 30 seconds, and 72° C. for 2 minutes. […] The relative amount of mRNA was quantitatively determined in accordance with BabyImager analysis and NIHimage 1.36.

Notch1 [3] = test: Gene expression test, RT-PCR analysis of Notch1; type: cell-based, mouse, rat; conditions: treated relative to untreated cells, normalized toward GAPDH
Protocol: as §2, §3, §4

[4] = system: Notch receptors (Notch 2 to 4); test: Gene expression test, RT-PCR analysis of the other Notch receptors; type: cell-based, mouse, rat; conditions: treated relative to untreated cells, normalized toward GAPDH
Protocol: as §2, §3, §4

[5] = system: 3T3 Ras transformed fibroblast; test: In vitro test, neoplastic foci of 3T3 Ras transformed fibroblast; type: cell-based, mouse; conditions: 10^−6M, compared with untreated cell, FIG. 3
Protocol: When 3T3 Ras transformed fibroblast was cultured in 10% FBS-containing DMEM medium for 3 days, appearance of “foci” is observed as compared with non-transformed cell strains.
Each of 3T3 Ras transformed fibroblast (derived from mouse) or 3T3 fibroblast (derived from mouse) each is cultured at a concentration of 10,000 cell/ml in 10% FBS-containing DMEM medium for 1 day.
Thereafter, each cell is treated with 10^−5M 2,4,4-trimethyl-3-(15-hydroxypentadecyl)-2-cyclohexen-1-one for 6 days.
3T3 Ras transformed fibroblast or 3T3 fibroblast is cultured at a concentration of 10,000 cell/ml in 5% FBS-containing DMEM medium which contains 0.625% agar (DIFCO) and 10^−6 M 2,4,4-trimethyl-3-(15-hydroxypentadecyl)-2-cyclohexen-1-one.
as §1

In the case of CC1=C(CCCCCCCCCCCCCCCO)C(C)(C)CCC1=O [2,4,4-trimethyl-3-(15-hydroxypentadecyl)-2-cyclohexen-1-one], the Notch1 expression (Notch1 [1]) is reported as “decrease”, the tumor size [2] is reported as “reduced” and the “STAT3 phosphorylation (band of P-STAT3)” value (STAT3) is reported as “suppressed”. For the same compound, the “levels of mRNA of HES5” value (HES5) was “always decreased”, the “levels of mRNA of Notch1” value (Notch1 [3]) was “always decreased” and the “expression levels of the other Notch receptors (Notch 2 to 4)” value [4] was “not changed”. The “neoplastic foci of the cell strain transformed with Ras” value [5] was “reduced”.
